Patent US20240226094A1, “ALPHA PROTEIN KINASE 1 INHIBITORS FOR USE IN TREATING KAWASAKI DISEASE” (Shanghai Yao Yuan Biotechnology Co., Ltd., priority 2021, published 2024)
Structures can show the parent of a compound that is named as a salt. Where two headings read alike, the source gives them in different places.

Experiments:
ALPK1 = ALPK1 (Homo sapiens (Human), UniProt Q96QP1); test: ALPK1 in vitro kinase assay (HTRF of TIFA phosphorylation); type: biochemical
Method: ALPK1 kinase activity was measured in an in vitro assay using ADP-Heptose as the ALPK1 ligand and activator of its kinase activity and TIFA protein as the ALPK1 phosphorylation substrate. Since phosphorylated TIFA proteins oligomerize, Homogeneous Time-Resolved Fluorescence (HTRF) was used to measure protein:protein interaction between HA-tagged TIFA proteins as an indicator of TIFA phosphorylation.
In brief, dose-response studies were performed with HEK293 cells cultured in Dulbecco's Modified Eagle Medium (DMEM) supplemented 10% fetal bovine serum (FBS, Hyclone™) containing antibiotics (pen/strep, G418) in 384-well assay plates. Each well contained 0.1 mg TIFA, ALPK1 (2 nM final concentration in reaction mixture) and kinase buffer (100 mM of HEPES pH 7.4, 4 mM DTT, 40 mM MgCl2, 20 mM of β-Glycerol phosphate disodium salt, 0.4 mM of Na3VO4, 0.16 mg/mL). Titrations of the test compounds were prepared in dimethylsulphoxide (DMSO). The reaction was initiated by addition of ATP and ADP-Heptose.
For HTRF, samples were incubated with a Tb cryptate-labeled anti-HA antibody for capturing HA-tagged proteins according to the manufacturer's instructions (PerkinElmer™, CisBio™) and the fluorescence signal was quantified (Tecan Infinite F NANO+). HTRF signals were calculated as the HTRF ratio (ratio of fluorescence measured at 665 nm and 620 nm)×104 (thereby using the signal at 620 nm as an internal standard).
IC50 values were determined using 3- or 4-parameter logistic equation using GraphPad Prism version 6.00. The reference compound, A027, was used as a positive control for each plate.

[1] = tested on: ALPK1-dependent NFκB reporter gene activation; test: NFκB gene reporter alkaline phosphatase assay in HEK293 G9 cells; type: cell-based, human; conditions: read-out: NFkB assay IC50
Method: An alkaline phosphatase reporter assay system was used to measure inhibition of ALPK1-dependent NFκB reporter gene activation. Briefly, HEK293 cells stably expressing an NF-kB reporter (referred to herein as “G9 cells”) were maintained in DMEM as described above. For the assay, cells were seeded into 96-well plates at a density of 10,000 cells/well in Freestyle-M 293 Expression Medium (ThermoFisher), and allowed to attach overnight. […] NFkB gene activation was detected using the chromogenic substrate, para-nitrophenyl phosphate (pNPP) according to the manufacturer's protocols (pNPP Phosphatase Assay, Beyotine Biotechnology).

[2] = tested on: ALPK1-TIFA-IL1β pathway in THP-1-derived macrophage cells; test: PMA-differentiated THP-1 cell based assay (IL1β mRNA after ALPK1 agonist); conditions: Homo sapiens; PMA-differentiated THP-1 cells, 2 h pretreatment, 4 h ALPK1 agonist; read-out: IC50 of IL1β mRNA induced by ALPK1 activation
Method: Peripheral blood mononuclear cells (PBMCs) from Kawasaki patients show activation of ALPK1-TIFA-IL1β pathway. […] THP-1 cells were cultured in RPMI 1640 containing 10% heat inactivated FBS, penicillin (100 units/ml) and streptomycin ([…]), and maintained in a humidified incubator with 95% atmospheric air and 5% CO2. Prior to the experiment, THP-1 cells were seeded into 24-well flat-bottom plate at a cell density of […]. Phorbol myristate acetate (PMA; 50 ng/mil) was used to treat THP-i cells for 48 h, and then THP-1-derived macrophages were obtained. […] Total RNA was extracted using the TRIzol method and reverse-transcribed. The mRNA expression levels IL1β were detected by SYBR green gene expression assays. Expression levels of mRNA were normalized to GAPDH. Relative expression was calculated by comparing to vehicle control and the values were plotted as fold induction. All activity results were expressed as the mean of triplicate determinations.

[3] = tested on: ALPK1-dependent innate immunity gene expression in PBMC; test: Inhibition of ALPK1 in PBMC cells (innate immunity gene mRNA, RT-PCR); type: in vivo, Sprague-Dawley (SD) rats; conditions: SD rats, 10 mpk oral, 2 h before ip ALPK1 agonist, blood 3 h later, compared with vehicle group
Method: We examined whether ALPK1 inhibitors can suppress ALPK1-dependent activation of a set of such genes in rats. […] PBMCs were collected and gene expression analyzed, as described in more detail below.
After 3 hours administration of the ALPK1 agonist, the blood was collected from heart, and PBMC were extracted from each group.

[4] = tested on: ALPK1-dependent innate immunity gene expression; test: Inhibition of ALPK1 in coronary artery, aorta and heart muscle (innate immunity gene mRNA, RT-PCR); type: in vivo, Sprague-Dawley (SD) rats; conditions: SD rats, 40 mpk oral, 2 h before ip ALPK1 agonist, tissue 3 h later, compared with vehicle group
[5] = ADP-Heptose activated ALPK1, TIFA substrate, HTRF

ALPK1, sequence (Q96QP1 whole entry): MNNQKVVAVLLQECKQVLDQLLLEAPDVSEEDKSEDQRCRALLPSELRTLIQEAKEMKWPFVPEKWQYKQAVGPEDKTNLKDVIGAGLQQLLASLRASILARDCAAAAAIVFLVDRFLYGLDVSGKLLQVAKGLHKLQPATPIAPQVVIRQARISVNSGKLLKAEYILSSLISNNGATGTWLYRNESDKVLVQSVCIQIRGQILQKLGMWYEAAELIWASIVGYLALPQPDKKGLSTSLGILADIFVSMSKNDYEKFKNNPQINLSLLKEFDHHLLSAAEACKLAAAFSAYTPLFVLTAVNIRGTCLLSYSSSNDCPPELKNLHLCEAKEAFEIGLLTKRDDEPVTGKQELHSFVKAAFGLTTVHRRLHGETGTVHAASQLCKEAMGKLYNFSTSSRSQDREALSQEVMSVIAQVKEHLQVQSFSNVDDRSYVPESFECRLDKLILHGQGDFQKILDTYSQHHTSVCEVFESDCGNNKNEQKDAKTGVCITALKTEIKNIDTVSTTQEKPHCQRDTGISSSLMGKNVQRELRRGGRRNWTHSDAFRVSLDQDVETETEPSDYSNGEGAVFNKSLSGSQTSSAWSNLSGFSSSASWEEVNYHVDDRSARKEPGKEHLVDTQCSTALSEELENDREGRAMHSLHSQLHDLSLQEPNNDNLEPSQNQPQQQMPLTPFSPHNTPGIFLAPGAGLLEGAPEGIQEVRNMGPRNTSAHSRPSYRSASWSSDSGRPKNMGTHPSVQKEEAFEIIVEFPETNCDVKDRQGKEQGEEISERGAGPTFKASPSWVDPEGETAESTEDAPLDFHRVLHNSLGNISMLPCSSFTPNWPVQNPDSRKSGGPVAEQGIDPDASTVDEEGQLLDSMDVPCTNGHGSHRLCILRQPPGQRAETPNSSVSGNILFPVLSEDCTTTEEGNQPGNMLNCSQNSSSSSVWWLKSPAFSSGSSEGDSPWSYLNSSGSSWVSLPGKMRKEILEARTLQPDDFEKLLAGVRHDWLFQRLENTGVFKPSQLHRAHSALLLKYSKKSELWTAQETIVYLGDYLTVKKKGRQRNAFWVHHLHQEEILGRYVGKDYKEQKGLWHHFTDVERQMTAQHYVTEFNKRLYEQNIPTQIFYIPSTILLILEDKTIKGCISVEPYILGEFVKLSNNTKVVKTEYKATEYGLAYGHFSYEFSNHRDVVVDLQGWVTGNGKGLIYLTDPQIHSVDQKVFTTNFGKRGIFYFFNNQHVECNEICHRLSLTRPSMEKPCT

C#C[C@@](C)(c1ccc(F)cc1)c1csc(NC(=O)NCCO)n1 (stereo in doubt) [A283, 1-(4-(2-(4-fluorophenyl)but-3-yn-2-yl)thiazol-2-yl)-3-(2-hydroxyethyl)urea]
IC50 (ALPK1): 550 nM

C#C[C@](C)(c1ccc(Cl)cc1)c1csc(NC(=O)c2ccc(N3CCNCC3)cc2)n1 (stereo in doubt) [B092, N-(4-(2-(4-chlorophenyl)but-3-yn-2-yl)thiazol-2-yl)-4-(piperazin-1-yl)benzamide]
IC50 (ALPK1; [5]): 219 nM

C#C[C@@](C)(c1ccc(Cl)cc1)c1csc(NC(=O)c2ccc(N3CCNCC3)cc2)n1 (stereo in doubt) [B093, N-(4-(2-(4-chlorophenyl)but-3-yn-2-yl)thiazol-2-yl)-4-(piperazin-1-yl)benzamide]
IC50 (ALPK1; [5]): 43 nM

CC(C)(c1ccc(Br)cc1)c1csc(NC(=O)NCc2cccc(N3CCNCC3)c2)n1 [A005, 1-(4-(2-(4-bromophenyl)propan-2-yl)thiazol-2-yl)-3-(3-(piperazin-1-yl)benzyl)urea]
IC50 (ALPK1): 97 nM
IC50 ([1]; Homo sapiens, HEK293): 3150 nM

COc1ccc(C(C)(C)c2csc(NC(=O)NCc3cnccn3)n2)cc1 [A007, 1-(4-(2-(4-methoxyphenyl)propan-2-yl)thiazol-2-yl)-3-(pyrazin-2-ylmethyl)urea]
IC50 (ALPK1): 91 nM
IC50 ([1]; Homo sapiens, HEK293): 5580 nM

COc1ccc(C(C)(C)c2csc(NC(=O)NCCCCNc3ccccc3)n2)cc1 [A147, 1-(4-(2-(4-methoxyphenyl)propan-2-yl)thiazol-2-yl)-3-(4-(phenylamino)butyl)urea]
IC50 (ALPK1): 235 nM

COc1ccc(C(C)(C)c2csc(NC(=O)NCc3cc(F)c(C4CCNCC4)c(F)c3)n2)cc1 [A151, 1-(3,5-difluoro-4-(piperidin-4-yl)benzyl)-3-(4-(2-(4-methoxyphenyl)propan-2-yl)thiazol-2-yl)urea hydrochloride]
IC50 ([1]; Homo sapiens, HEK293): 950 nM

C#C[C@@](C)(c1ccc(Cl)cc1)c1csc(NC(=O)NCCO)n1 [A176, (S)-1-(4-(2-(4-chlorophenyl)but-3-yn-2-yl)thiazol-2-yl)-3-(2-hydroxyethyl)urea]
IC50 [2]: 97 nM
mRNA expressions of PBMC CCL-2, CCL-7, CXCL-1, CXCL-10, CXCL-11 and IL-1β [3]: significantly decreased

CC(C)(c1ccc(I)cc1)c1csc(NC(=O)NCc2cnc(N3CCNCC3)nc2)n1 [A178, 1-(4-(2-(4-iodophenyl)propan-2-yl)thiazol-2-yl)-3-((2-(piperazin-1-yl)pyrimidin-5-yl)methyl)urea]
IC50 (ALPK1): 42 nM

COc1ccc(C(C)(C)c2csc(NC(=O)NCc3ccc(N4CCC(N)C4)nc3)n2)cc1 (stereo not drawn) [A199, 1-((6-(3-aminopyrrolidin-1-yl)pyridin-3-yl)methyl)-3-(4-(2-(4-methoxyphenyl)propan-2-yl)thiazol-2-yl)urea]
IC50 ([1]; Homo sapiens, HEK293): 460 nM

COc1ccc(C(C)(C)c2csc(NC(=O)NCc3cc(F)c(N4CCNCC4)cc3F)n2)cc1 [A231, 1-(2,5-difluoro-4-(piperazin-1-yl)benzyl)-3-(4-(2-(4-methoxyphenyl)propan-2-yl)thiazol-2-yl)urea hydrochloride]
IC50 ([1]; Homo sapiens, HEK293): 3360 nM

COc1ccc(C(C)(C)c2csc(NC(=O)N3CC(c4ccc(N5CCNCC5)cc4)C3)n2)cc1 [A233, N-(4-(2-(4-methoxyphenyl)propan-2-yl)thiazol-2-yl)-3-(4-(piperazin-1-yl)phenyl)azetidine-1-carboxamide]
IC50 ([1]; Homo sapiens, HEK293): 330 nM

C#CC(C)(c1ccc(OC)cc1)c1csc(NC(=O)NC(C)c2ccc(N3CCNCC3)cc2)n1 (stereo not drawn) [A234, 1-(4-(2-(4-methoxyphenyl)but-3-yn-2-yl)thiazol-2-yl)-3-(1-(4-(piperazin-1-yl)phenyl)ethyl)urea]
IC50 (ALPK1): 36 nM

COc1ccc(C(C)(CO)c2csc(NC(=O)NC(C)c3ccc(N4CCNCC4)cc3)n2)cc1 (stereo not drawn) [A235, 1-(4-(1-hydroxy-2-(4-methoxyphenyl)propan-2-yl)thiazol-2-yl)-3-(1-(4-(piperazin-1-yl)phenyl)ethyl)urea]
IC50 (ALPK1): 61 nM

C#CC(C)(c1ccc(Br)cc1)c1csc(NC(=O)NCCN2CCNCC2)n1 (stereo not drawn) [A239, 1-(4-(2-(4-bromophenyl)but-3-yn-2-yl)thiazol-2-yl)-3-(2-(piperazin-1-yl)ethyl)urea]
IC50 (ALPK1): 20 nM

C#C[C@](C)(c1ccc(OC)cc1)c1csc(NC(=O)N2CC(CO)C2)n1 [A255, (R)-3-(hydroxymethyl)-N-(4-(2-(4-methoxyphenyl)but-3-yn-2-yl)thiazol-2-yl)azetidine-1-carboxamide]
IC50 (ALPK1): 109 nM

C#C[C@@](C)(c1ccc(OC)cc1)c1csc(NC(=O)N2CC(CO)C2)n1 [A256, (S)-3-(hydroxymethyl)-N-(4-(2-(4-methoxyphenyl)but-3-yn-2-yl)thiazol-2-yl)azetidine-1-carboxamide]
IC50 (ALPK1): 43 nM

C#C[C@](C)(c1ccc(Cl)cc1)c1csc(NC(=O)N2CC(CO)C2)n1 [A257, (R)-N-(4-(2-(4-chlorophenyl)but-3-yn-2-yl)thiazol-2-yl)-3-(hydroxymethyl)azetidine-1-carboxamide]
IC50 (ALPK1): 246 nM

C#C[C@@](C)(c1ccc(Cl)cc1)c1csc(NC(=O)N2CC(CO)C2)n1 [A258, (S)-N-(4-(2-(4-chlorophenyl)but-3-yn-2-yl)thiazol-2-yl)-3-(hydroxymethyl)azetidine-1-carboxamide]
IC50 (ALPK1): 57 nM

C#CC(C)(c1ccc(Cl)cc1)c1csc(NC(=O)N2CCc3cc(N4CCNCC4)ccc3C2)n1 (stereo not drawn) [A281]
IC50 [1]: 860 nM

C#CC(C)(c1ccc(Cl)cc1)c1csc(NC(=O)c2ccc(N3CCNCC3)cc2F)n1 (stereo not drawn) [B065, N-(4-(2-(4-chlorophenyl)but-3-yn-2-yl)thiazol-2-yl)-2-fluoro-4-(piperazin-1-yl)benzamide]
IC50 (ALPK1; [5]): 34 nM

C#CC(C)(c1ccc(Cl)cc1)c1csc(NC(=O)c2ccc(N3CCNCC3)c(OC)c2)n1 (stereo not drawn) [B066, N-(4-(2-(4-chlorophenyl)but-3-yn-2-yl)thiazol-2-yl)-3-methoxy-4-(piperazin-1-yl)benzamide]
IC50 (ALPK1; [5]): 29 nM

C#C[C@@](C)(c1ccc(Cl)cc1)c1csc(NC(=O)c2c(F)cc(N3CCNCC3)cc2F)n1 [C008, (S)-N-(4-(2-(4-chlorophenyl)but-3-yn-2-yl)thiazol-2-yl)-2,6-difluoro-4-(piperazin-1-yl)benzamide]
IC50 [2]: 15 nM
mRNA expression of aorta IL-6, CXCL-1, CXCL-10, CCL-2 [4]: significantly decreased
mRNA expression of cardiac muscle TNF-a, IL-1b, IL-6, CXCL-1, CXCL-10, CXCL-11, CCL-2 and CCL-5 [4]: significantly decreased
mRNA expression of coronary artery TNF-α, CXCL-1, CCL-2 and CCL-7 [4]: significantly decreased
mRNA expressions of PBMC CCL-7, CXCL-1, CXCL-10, CXCL-11, IL-1β, TNF-α and IL-6 [3]: significantly decreased
